{"source": "PubChem BioAssay AID1963837", "about": "(Molecular Pharmacology Branch, DTP, NCI, 2024)", "test_system": "843126-344-R-J1-PDC complex spheroid viability", "test": "Anticancer human tumor 843126-344-R-J1-PDC patient-derived melanoma cell line growth inhibition [POLQ]", "conditions": "for viability, T/C: stronger effect = lower value", "protocol": "Multicellular complex tumor spheroid response to Polymerase (POL) inhibitors (novobiocin, ART-558, RP6685) in combination with a variety of drugs and investigational agents in selected tumor cell lines\nThe POL inhibitors (novobiocin, ART-558, and RP6685) were evaluated both individually and in combination with standard of care and investigational anticancer small molecules within a complex spheroid model of solid tumors. . Complex spheroids include a stromal component modeled by human endothelial cells (HUVEC) and fibroblasts modeled by human mesenchymal stem cells (MSCs). The concentration ranges selected for each drug and investigational agent were based upon clinically achievable concentrations if the clinical Cmax of the agent was known.\nCompounds. The drugs and investigational agents: novobiocin (NSC847541), ART-558 (NSC835418), RP-6685 (NSC848927), peposertib (NSC802822), ceralasertib (NSC780249), elimusertib (NSC800525), camonsertib (NSC841442), AZD-1390 (NSC803789), olaparib (NSC753686), talazoparib (NSC767125), rucaparib (NSC756644), sotorasib (NSC818433), MRTX-1133 (NSC836407), SN-38 (NSC673596), topotecan (NSC609699), epotoside (NSC141540), doxorubicin (NSC123127), gemcitabine (NSC613327), 5-fluorouracil (NSC19893), paclitaxel (NSC125973), vemurafenib (NSC761431), MSA-2 (NSC828583), SN-011 (NSC837082), adavosertib (NSC754352), prexasertib (NSC758257), carboplatin (NSC241240) and oxaliplatin (NSC266046), were obtained from the National Cancer Institute (NCI) Developmental Therapeutics Program Chemical Repository (21). The FDA-approved anticancer drug set is available from the Developmental Therapeutics Program at https://dtp.cancer.gov/organization/dscb/obtaining/. […] The stock solutions were prepared in dimethyl sulfoxide (DMSO, Sigma-Aldrich, St. Louis, MO, cat. D2650), except for the platinum compounds which were prepared in saline (Quality Biological, Gaithersburg, MD, cat. 114-055-101), at 800-fold the tested concentration and stored at -70 degrees C prior to their use. All drugs and investigational agents were tested over a range starting from a high concentration at or near the clinical Cmax and decreasing in half-log increments. If the clinical Cmax for an agent had not been determined, the highest concentration tested was 10 microM, except for SN-38, which was tested at a high concentration of 1 microM.\nCell Culture. All cells were maintained in an incubator at 37 degrees C and 5% CO2 with 95% humidity. The PDC lines were cultured according to standard operating procedures established by the NCI PDMR (https://pdmr.cancer.gov). Table 3 of the manuscript, lists the cell lines along with the number of the three cell types plated to form the mct-spheroids and media for tumor cell growth. After thawing, all PDC lines, except 997537-175-T-J1-PDC and 415267-285-R-J2-PDC, were cultured in Matrigel-coated flasks prepared with a working solution of 1X Ham's F-12 nutrient mix, without supplementation (Thermo Fisher Scientific, cat. 11765054), 100 U/mL penicillin-streptomycin (Thermo Fisher Scientific, cat. 15140122), and 2.5% Matrigel (Corning Inc., Corning, NY, cat. 354248) for the first three passages. The two PDC lines 997537-175-T-J1-PDC and 415267-285-R-J2-PDC were cultured on uncoated flasks. The 857933-349-R-J2-PDC line was cultured in 6C/Colon 1B media containing advanced DMEM/F-12 (Thermo Fisher Scientific, cat. 12634028), 10 mM HEPES (Thermo Fisher Scientific, cat. 15630080), 1X GlutaMAX supplement (Thermo Fisher Scientific, cat. 35050061), 0.1 mg/mL primocin (InvivoGen, San Diego, CA, cat. ant-pm-2), 10% defined fetal bovine serum, heat inactivated (HyClone Laboratories Inc., Logan, UT, cat. SH30070.03HI), 50% L-WRN conditioned media (ATCC, cat. CRL-3276), 1.25 mM N-Acetyl-L-cysteine (Sigma-Aldrich, cat. A9165), 10 mM nicotinamide (Sigma-Aldrich, cat. N0636), 1X B-27 supplement (Thermo Fisher Scientific, cat. 17504044), 1X N-2 supplement (Thermo Fisher Scientific, cat. […]", "note": "“And” between values parts separate entries of the source, which are not always exact repeats. Identical values can stand only once.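 For viability, T/C in this document: spheroids exposed to drugs for seven days before readout.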", "data": [{"molecule": "CCc1cc2c(N3CCc4c(cc(Cn5ccnc5)cc4-c4cn(C)nc4C(F)(F)F)C3=O)cc(C)nc2c(OC)n1", "values": [{"measurement": "viability, T/C", "setting": "compound 0.0316 µM", "result": "103% and 106% and 77.7%"}, {"measurement": "viability, T/C", "setting": "compound 0.1 µM", "result": "81.1% and 72.2% and 85.4%"}, {"measurement": "viability, T/C", "setting": "compound 0.316 µM", "result": "76.4% and 87.8% and 98.1%"}, {"measurement": "viability, T/C", "setting": "compound 1 µM", "result": "64.2% and 76.7% and 85.2%"}, {"measurement": "viability, T/C", "setting": "compound 3.16 µM", "result": "71.5% and 72.6% and 64.6%"}, {"measurement": "viability, T/C", "setting": "compound 10 µM", "result": "54.2% and 60.3%"}, {"measurement": "IC50", "setting": "curve of compound", "result": "> 10000", "unit": "nM"}]}, {"molecule": "Cn1ncnc1[C@H]1c2n[nH]c(=O)c3cc(F)cc(c23)N[C@@H]1c1ccc(F)cc1", "note": "+ Nc1ccc(C#CCN(C(=O)Cc2ncc(C(F)(F)F)cc2C(F)(F)F)c2ccc(F)cc2)nn1", "values": [{"measurement": "IC50", "setting": "curve of first compound, second compound 0.0316 µM", "result": "> 100", "unit": "nM"}, {"measurement": "IC50", "setting": "curve of first compound, second compound 0.1 µM", "result": "> 100", "unit": "nM"}, {"measurement": "IC50", "setting": "curve of first compound, second compound 0.316 µM", "result": "> 100", "unit": "nM"}, {"measurement": "IC50", "setting": "curve of first compound, second compound 1 µM", "result": "> 100", "unit": "nM"}, {"measurement": "IC50", "setting": "curve of first compound, second compound 3.16 µM", "result": "> 100", "unit": "nM"}, {"measurement": "IC50", "setting": "curve of first compound, second compound 10 µM", "result": "> 100", "unit": "nM"}, {"measurement": "viability, T/C", "setting": "second compound 0.0316 µM, first compound 0.000316 µM", "result": 87.1, "unit": "%"}, {"measurement": "viability, T/C", "setting": "second compound 0.0316 µM, first compound 0.001 µM", "result": 93.9, "unit": "%"}, {"measurement": "viability, T/C", "setting": "second compound 0.0316 µM, first compound 0.00316 µM", "result": 101, "unit": "%"}, {"measurement": "viability, T/C", "setting": "second compound 0.0316 µM, first compound 0.01 µM", "result": 93.4, "unit": "%"}, {"measurement": "viability, T/C", "setting": "second compound 0.0316 µM, first compound 0.0316 µM", "result": 96.1, "unit": "%"}, {"measurement": "viability, T/C", "setting": "second compound 0.0316 µM, first compound 0.1 µM", "result": 82.6, "unit": "%"}, {"measurement": "viability, T/C", "setting": "second compound 0.1 µM, first compound 0.000316 µM", "result": 89, "unit": "%"}, {"measurement": "viability, T/C", "setting": "second compound 0.1 µM, first compound 0.001 µM", "result": 91.7, "unit": "%"}, {"measurement": "viability, T/C", "setting": "second compound 0.1 µM, first compound 0.00316 µM", "result": 107, "unit": "%"}, {"measurement": "viability, T/C", "setting": "second compound 0.1 µM, first compound 0.01 µM", "result": 96.2, "unit": "%"}, {"measurement": "viability, T/C", "setting": "second compound 0.1 µM, first compound 0.0316 µM", "result": 99.7, "unit": "%"}, {"measurement": "viability, T/C", "setting": "second compound 0.1 µM, first compound 0.1 µM", "result": 97.7, "unit": "%"}, {"measurement": "viability, T/C", "setting": "second compound 0.316 µM, first compound 0.000316 µM", "result": 108, "unit": "%"}, {"measurement": "viability, T/C", "setting": "second compound 0.316 µM, first compound 0.001 µM", "result": 93.3, "unit": "%"}, {"measurement": "viability, T/C", "setting": "second compound 0.316 µM, first compound 0.00316 µM", "result": 111, "unit": "%"}, {"measurement": "viability, T/C", "setting": "second compound 0.316 µM, first compound 0.01 µM", "result": 93.2, "unit": "%"}, {"measurement": "viability, T/C", "setting": "second compound 0.316 µM, first compound 0.0316 µM", "result": 99.8, "unit": "%"}, {"measurement": "viability, T/C", "setting": "second compound 0.316 µM, first compound 0.1 µM", "result": 99.8, "unit": "%"}, {"measurement": "viability, T/C", "setting": "second compound 1 µM, first compound 0.000316 µM", "result": 97.3, "unit": "%"}, {"measurement": "viability, T/C", "setting": "second compound 1 µM, first compound 0.001 µM", "result": 102, "unit": "%"}, {"measurement": "viability, T/C", "setting": "second compound 1 µM, first compound 0.00316 µM", "result": 87.9, "unit": "%"}, {"measurement": "viability, T/C", "setting": "second compound 1 µM, first compound 0.01 µM", "result": 106, "unit": "%"}, {"measurement": "viability, T/C", "setting": "second compound 1 µM, first compound 0.0316 µM", "result": 104, "unit": "%"}, {"measurement": "viability, T/C", "setting": "second compound 1 µM, first compound 0.1 µM", "result": 73.1, "unit": "%"}, {"measurement": "viability, T/C", "setting": "second compound 3.16 µM, first compound 0.000316 µM", "result": 93.3, "unit": "%"}, {"measurement": "viability, T/C", "setting": "second compound 3.16 µM, first compound 0.001 µM", "result": 102, "unit": "%"}, {"measurement": "viability, T/C", "setting": "second compound 3.16 µM, first compound 0.00316 µM", "result": 88, "unit": "%"}, {"measurement": "viability, T/C", "setting": "second compound 3.16 µM, first compound 0.01 µM", "result": 95.7, "unit": "%"}, {"measurement": "viability, T/C", "setting": "second compound 3.16 µM, first compound 0.0316 µM", "result": 102, "unit": "%"}, {"measurement": "viability, T/C", "setting": "second compound 3.16 µM, first compound 0.1 µM", "result": 94.8, "unit": "%"}, {"measurement": "viability, T/C", "setting": "second compound 10 µM, first compound 0.000316 µM", "result": 101, "unit": "%"}, {"measurement": "viability, T/C", "setting": "second compound 10 µM, first compound 0.001 µM", "result": 83.6, "unit": "%"}, {"measurement": "viability, T/C", "setting": "second compound 10 µM, first compound 0.00316 µM", "result": 97, "unit": "%"}, {"measurement": "viability, T/C", "setting": "second compound 10 µM, first compound 0.01 µM", "result": 89.5, "unit": "%"}, {"measurement": "viability, T/C", "setting": "second compound 10 µM, first compound 0.0316 µM", "result": 88.6, "unit": "%"}, {"measurement": "viability, T/C", "setting": "second compound 10 µM, first compound 0.1 µM", "result": 80.2, "unit": "%"}]}, {"molecule": "CC(=O)O[C@H]1C(=O)[C@@]2(C)[C@H]([C@H](OC(=O)c3ccccc3)[C@]3(O)C[C@H](OC(=O)[C@H](O)[C@@H](NC(=O)c4ccccc4)c4ccccc4)C(C)=C1C3(C)C)[C@]1(OC(C)=O)CO[C@@H]1C[C@@H]2O", "values": [{"measurement": "viability, T/C", "setting": "compound 0.00949 µM", "result": "65.3% and 60.5%"}, {"measurement": "viability, T/C", "setting": "compound 0.03 µM", "result": "54.6% and 53.3%"}, {"measurement": "viability, T/C", "setting": "compound 0.0949 µM", "result": "64.2% and 54.8%"}, {"measurement": "viability, T/C", "setting": "compound 0.3 µM", "result": "75.2% and 57%"}, {"measurement": "viability, T/C", "setting": "compound 0.949 µM", "result": "74.7% and 55.3%"}, {"measurement": "viability, T/C", "setting": "compound 3 µM", "result": "76% and 66.8%"}, {"measurement": "IC50", "setting": "curve of compound", "result": "> 3000", "unit": "nM"}]}]}
